In brackets after ≈: the same amount, converted by molar mass.
Assays:
Assay in all cases: Minimum inhibitory concentration (MIC), Heart Infusion agar
Format in all cases: cell-based
Prot. vulgaris GN-76 = conditions: Proteus vulgaris, GN76; Prot. vulgaris GN-76; 10^6 cells/ml; 20 hours, 37° C.; read-out: minimum inhibitory concentration (MIC)
Method: (§1) Antibacterial activities of the representative compounds (Ib) of the 7α-methoxycephalosporins according to this invention are shown in Table 1. [drawing 20]
(§2) The figures given in Table 1 represent the minimum inhibitory concentration (MIC in mcg/ml) of each compound, which was determined according to the method described in "Chemotherapy (Society of Chemotherapy, Japan), Vol. 16, 98-99 (1968)": A culture obtained by cultivating the test bacterium in a Heart Infusion broth (Eiken Kagaku Co.) was inoculated into a Heart Infusion agar medium (Eiken Kagaku Co.). After 20 hours of the incubation at 37° C., the growth of the bacterium was inspected to determine the minimum inhibitory concentration (MIC in mcg/ml). The inoculation rate of the bacterium was 10^4 cells/plate (10^6 cells/ml).
(§3) (1) Minimum inhibitory concentration (MIC in mcg/ml).

Klebsiella spp. Y-72 = conditions: SPP.Y72; Klebsiella spp. Y-72; 10^6 cells/ml; 20 hours, 37° C.; read-out: minimum inhibitory concentration (MIC)
Method: as §1, §2, §3

E. coli NIHJ = conditions: Escherichia coli; E. coli NIHJ; 10^6 cells/ml; 20 hours, 37° C.; read-out: minimum inhibitory concentration (MIC)
Method: as §1, §2, §3

[1] = test system: S. aureus F-19 (Penicillinase-producing bacterium); conditions: Staphylococcus aureus; S. aureus F-19; 10^6 cells/ml; 20 hours, 37° C.; read-out: minimum inhibitory concentration (MIC)
Method: as §1, §2, §3

[2] = test system: C. freundii GN-346 (Cephalosporinase-producing bacterium); conditions: Citrobacter freundii, GN346; C. freundii GN-346; 10^6 cells/ml; 20 hours, 37° C.; read-out: minimum inhibitory concentration (MIC)
Method: as §1, §2, §3

K. pneumoniae Y-50 = conditions: Klebsiella pneumoniae, Y50; K. pneumoniae Y-50; 10^6 cells/ml; 20 hours, 37° C.; read-out: minimum inhibitory concentration (MIC)
Method: as §1, §2, §3

Ps. aeruginosa IFO-3445 = conditions: Pseudomonas aeruginosa, IFO3445; Ps. aeruginosa IFO-3445; 10^6 cells/ml; 20 hours, 37° C.; read-out: minimum inhibitory concentration (MIC)
Method: as §1, §2, §3

Citrobacter N-7 = conditions: N7; Citrobacter N-7; 10^6 cells/ml; 20 hours, 37° C.; read-out: minimum inhibitory concentration (MIC)
Method: as §1, §2, §3

Ent. cloacae IID977 = conditions: Enterobacter cloacae; Ent. cloacae IID977; 10^6 cells/ml; 20 hours, 37° C.; read-out: minimum inhibitory concentration (MIC)
Method: as §1, §2, §3

[3] = test system: Acinetobacter caloaceticus A-6; conditions: A6; Acinetobacter caloaceticus A-6; 10^6 cells/ml; 20 hours, 37° C.; read-out: minimum inhibitory concentration (MIC)
Method: as §1, §2, §3

Ser. marcescens W-8 = conditions: Serratia marcescens, W8; Ser. marcescens W-8; 10^6 cells/ml; 20 hours, 37° C.; read-out: minimum inhibitory concentration (MIC)
Method: as §1, §2, §3

Ser. marcescens IID620 = conditions: Serratia marcescens; Ser. marcescens IID620; 10^6 cells/ml; 20 hours, 37° C.; read-out: minimum inhibitory concentration (MIC)
Method: as §1, §2, §3

Ps. aeruginosa S-68 = conditions: Pseudomonas aeruginosa, S68; Ps. aeruginosa S-68; 10^6 cells/ml; 20 hours, 37° C.; read-out: minimum inhibitory concentration (MIC)
Method: as §1, §2, §3

Ser. marcescens W-35 = conditions: Serratia marcescens, W35, 20 h, Ser. marcescens W-35; 10^6 cells/ml; 20 hours, 37° C. (Table 1); read-out: minimum inhibitory concentration (MIC)
Method: as §1
as §2, with “The inoculation rate of the bacterium was 10^4 cells/plate (10^6 cells/ml).” left out
as §3

Row | SMILES | MIC (Prot. vulgaris GN-76) | MIC (Klebsiella spp. Y-72) | MIC (E. coli NIHJ) | MIC [1] | MIC [2] | MIC (K. pneumoniae Y-50) | MIC (Ps. aeruginosa IFO-3445) | MIC (Citrobacter N-7) | MIC (Ent. cloacae IID977) | MIC [3] | MIC (Ser. marcescens W-8) | MIC (Ser. marcescens IID620) | MIC (Ps. aeruginosa S-68) | MIC (Ser. marcescens W-35)
1 | CCN1CCN(C(=O)NC(C(=O)N[C@]2(OC)C(=O)N3C(C(=O)O)=C(CSc4nnnn4CC(=O)NO)CS[C@@H]32)c2cccs2)C(=O)C1=O (some centres unmarked) | 0.78 µg/mL (≈ 1.08 µM) | 100 µg/mL (≈ 138 µM) | ≤ 0.1 µg/mL | 25 µg/mL (≈ 34.5 µM) | ≥ 200 µg/mL | 1.56 µg/mL (≈ 2.15 µM) | 12.5 µg/mL (≈ 17.2 µM) | 50 µg/mL (≈ 69 µM) | 200 µg/mL (≈ 276 µM) | 1.56 µg/mL (≈ 2.15 µM) | 100 µg/mL (≈ 138 µM) | 0.78 µg/mL (≈ 1.08 µM) | 25 µg/mL (≈ 34.5 µM) | 200 µg/mL (≈ 276 µM)
2 | CCN1CCN(C(=O)NC(C(=O)N[C@]2(OC)C(=O)N3C(C(=O)O)=C(CSc4nnnn4C)CS[C@@H]32)c2ccco2)C(=O)C1=O (some centres unmarked) | 0.78 µg/mL (≈ 1.2 µM) | 6.25 µg/mL (≈ 9.62 µM) | ≤ 0.1 µg/mL | 6.25 µg/mL (≈ 9.62 µM) | 25 µg/mL (≈ 38.5 µM) | 0.2 µg/mL (≈ 0.308 µM) | 12.5 µg/mL (≈ 19.2 µM) |  | 25 µg/mL (≈ 38.5 µM) | 12.5 µg/mL (≈ 19.2 µM) | 100 µg/mL (≈ 154 µM) | ≤ 0.1 µg/mL | 25 µg/mL (≈ 38.5 µM) | 12.5 µg/mL (≈ 19.2 µM)
3 | CCN1CCN(C(=O)NC(C(=O)N[C@]2(OC)C(=O)N3C(C(=O)O)=C(CSc4nnnn4CC(N)=O)CS[C@@H]32)c2ccco2)C(=O)C1=O (some centres unmarked) | 1.56 µg/mL (≈ 2.25 µM) |  | ≤ 0.1 µg/mL | 6.25 µg/mL (≈ 9.02 µM) |  | 0.2 µg/mL (≈ 0.289 µM) | 12.5 µg/mL (≈ 18 µM) |  | 25 µg/mL (≈ 36.1 µM) |  |  | ≤ 0.1 µg/mL |  | 6.25 µg/mL (≈ 9.02 µM)
4 | CCN1CCN(C(=O)NC(C(=O)N[C@]2(OC)C(=O)N3C(C(=O)O)=C(CSc4nnnn4CCO)CS[C@@H]32)c2ccco2)C(=O)C1=O (some centres unmarked) | 1.56 µg/mL (≈ 2.3 µM) |  | ≤ 0.1 µg/mL | 6.25 µg/mL (≈ 9.2 µM) |  | 0.2 µg/mL (≈ 0.294 µM) | 12.5 µg/mL (≈ 18.4 µM) |  | 25 µg/mL (≈ 36.8 µM) |  |  | ≤ 0.1 µg/mL |  | 
5 | C=Cn1nnnc1SCC1=C(C(=O)O)N2C(=O)[C@](NC(=O)C(NC(=O)N3CCN(CC)C(=O)C3=O)c3ccco3)(OC)[C@H]2SC1 (some centres unmarked) | 3.13 µg/mL (≈ 4.73 µM) |  | ≤ 0.1 µg/mL | 3.13 µg/mL (≈ 4.73 µM) |  | 0.2 µg/mL (≈ 0.302 µM) | 25 µg/mL (≈ 37.8 µM) |  | 25 µg/mL (≈ 37.8 µM) |  |  | ≤ 0.1 µg/mL |  | 
6 | CCN1CCN(C(=O)NC(C(=O)N[C@]2(OC)C(=O)N3C(C(=O)O)=C(CSc4nnnn4C)CS[C@@H]32)c2csc(N)n2)C(=O)C1=O (some centres unmarked) | 0.78 µg/mL (≈ 1.14 µM) | 1.56 µg/mL (≈ 2.29 µM) | ≤ 0.1 µg/mL | 3.13 µg/mL (≈ 4.59 µM) | 50 µg/mL (≈ 73.3 µM) | 0.2 µg/mL (≈ 0.293 µM) | 12.5 µg/mL (≈ 18.3 µM) | 1.56 µg/mL (≈ 2.29 µM) | 25 µg/mL (≈ 36.7 µM) | 25 µg/mL (≈ 36.7 µM) | 100 µg/mL (≈ 147 µM) | ≤ 0.1 µg/mL | 25 µg/mL (≈ 36.7 µM) | 
7 | CCN1CCN(C(=O)NC(C(=O)N[C@]2(OC)C(=O)N3C(C(=O)O)=C(CSc4nnnn4CC(N)=O)CS[C@@H]32)c2csc(N)n2)C(=O)C1=O (some centres unmarked) | 1.56 µg/mL (≈ 2.15 µM) |  | ≤ 0.1 µg/mL | 3.13 µg/mL (≈ 4.32 µM) |  |  | 12.5 µg/mL (≈ 17.2 µM) |  |  | 12.5 µg/mL (≈ 17.2 µM) |  | ≤ 0.1 µg/mL |  | 
8 | CCN1CCN(C(=O)NC(C(=O)N[C@]2(OC)C(=O)N3C(C(=O)O)=C(CSc4nnc(C)s4)CS[C@@H]32)c2csc(N)n2)C(=O)C1=O (some centres unmarked) | 3.13 µg/mL (≈ 4.49 µM) |  | ≤ 0.1 µg/mL | 6.25 µg/mL (≈ 8.96 µM) |  |  | 25 µg/mL (≈ 35.8 µM) |  |  | 25 µg/mL (≈ 35.8 µM) |  | 0.39 µg/mL (≈ 0.559 µM) |  | 
9 | CCN1CCN(C(=O)NC(C(=O)N[C@]2(OC)C(=O)N3C(C(=O)O)=C(COC(C)=O)CS[C@@H]32)c2csc(N)n2)C(=O)C1=O (some centres unmarked) [OCOCH3] | 3.13 µg/mL (≈ 5 µM) |  | ≤ 0.1 µg/mL | 6.25 µg/mL (≈ 9.99 µM) |  |  | 25 µg/mL (≈ 40 µM) |  |  | 25 µg/mL (≈ 40 µM) |  | 0.39 µg/mL (≈ 0.623 µM) |  | 

From patent US4321265A, “7α-Methoxycephalosporins” (Toyama Chemical Co., Ltd., priority 1977, dated 1982)
